“Also recorded” adds a separate entry of the source. Positions of bridges follow the written chain, without caps; N, C: chain ends. No end group written: not given here.
Assays:
AeCNMaR-1b (AAEL018316) = AeCNMaR-1b (AAEL018316) (Aedes aegypti, UniProt A0A1S4G7J8); test: Receptor activation, aequorin luminescence in CHO-K1 aeq cells expressing AeCNMaR-1b; type: cell-based
Excerpt: The CNMa peptide was synthesized and HPLC purified (>90% purity) by Royobiotechs (Shanghai, China) based on the published sequence of the AeCNMa peptide sequence. Both the amidated (YMSLCHFKLCNMa) and the non-amidated (YMSLCHFKLCNM) were produced with a disulfide bridge between cysteines 5 and 10. The complete coding sequence of the two putative Ae. aegypti CNMa receptors (VectorBase genes AAEL024199 and AAEL018316, which we henceforth refer to as AeCNMaR-1a and AeCNMaR-1b, respectively) were commercially synthesized (Integrated DNA Technologies) and subsequently subcloned into a pcDNA3.1+ mammalian expression vector [24]. A Chinese hamster ovary cell line stably expressing the calcium-dependent bioluminescent protein aequorin (CHO-K1 aeq) was grown in Dulbecco’s modified eagles medium: nutrient F12 (DMEM:F12) media containing 10% heat-inactivated fetal bovine serum (FBS; Wisent, St. Bruno, QC, Canada), 200 μg/mL geneticin, and an antimycotic-antibiotic mixture as described previously. […]
Other Ae. aegypti peptides used in this study included “capability” (CAPA)-1 (GPTVGLFAFPRV-NH2), CAPA-2 (pQGLVPFPRV-NH2), AedaeCAPA-pyrokinin (PK) 1 (AGNSGANSGMWFGPRL-NH2), adipokinetic/corazonin-like peptide (ACP; pQVTFSRDWNA-NH2), adipokinetic hormone (AKH) (pQLTFTPSW-NH2), and corazonin (CRZ; pQTFQYSRGWTN-NH2). […] Single concentrations of the various peptides were loaded into individual wells of white 96-well luminescence plates (Greiner Bio-One, Frickenhausen, Germany) with each peptide concentration tested in quadruplicate. CHO-K1 aeq cells expressing either of the two AeCNMa receptors or mCherry were prepared for the functional assay, as described above, and injected into each well of the 96-well luminescence plates by an automated injector unit integrated with the Synergy 2 Multi-Mode Microplate Reader (BioTek, Winooski, VT, USA). The kinetic luminescent response was measured for 10 s immediately following the application of the cells into the wells containing the different peptide treatments or the negative (i.e., BSA media alone) or positive (i.e., 50 μM ATP) controls as described previously. Data was assembled in Microsoft Excel and then analyzed in GraphPad Prism 7.02 (GraphPad Software, San Diego, CA, USA) where the dose–response curves from multiple biological replicates were used to determine the half maximal effective concentrations (EC50).

AeCNMaR-1a (AAEL024199) = AeCNMaR-1a (AAEL024199) (Aedes aegypti, UniProt A0A6I8U3V2); test: Receptor activation, aequorin luminescence in CHO-K1 aeq cells expressing AeCNMaR-1a; type: cell-based
Chain of AeCNMaR-1a (AAEL024199) (A0A6I8U3V2 entry or part of it): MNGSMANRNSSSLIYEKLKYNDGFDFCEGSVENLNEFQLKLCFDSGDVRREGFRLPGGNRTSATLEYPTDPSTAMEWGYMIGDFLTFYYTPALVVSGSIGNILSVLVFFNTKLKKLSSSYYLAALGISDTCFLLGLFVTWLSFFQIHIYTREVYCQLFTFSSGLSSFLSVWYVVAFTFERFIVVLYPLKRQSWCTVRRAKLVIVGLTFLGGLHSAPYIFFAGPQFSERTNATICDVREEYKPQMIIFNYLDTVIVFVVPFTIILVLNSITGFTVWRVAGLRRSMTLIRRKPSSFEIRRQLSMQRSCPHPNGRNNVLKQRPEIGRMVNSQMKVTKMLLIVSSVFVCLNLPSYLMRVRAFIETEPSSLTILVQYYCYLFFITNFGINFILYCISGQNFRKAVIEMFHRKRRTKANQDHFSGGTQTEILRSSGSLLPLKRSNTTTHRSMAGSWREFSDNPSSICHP
Excerpt: The CNMa peptide was synthesized and HPLC purified (>90% purity) by Royobiotechs (Shanghai, China) based on the published sequence of the AeCNMa peptide sequence. Both the amidated (YMSLCHFKLCNMa) and the non-amidated (YMSLCHFKLCNM) were produced with a disulfide bridge between cysteines 5 and 10. The complete coding sequence of the two putative Ae. aegypti CNMa receptors (VectorBase genes AAEL024199 and AAEL018316, which we henceforth refer to as AeCNMaR-1a and AeCNMaR-1b, respectively) were commercially synthesized (Integrated DNA Technologies) and subsequently subcloned into a pcDNA3.1+ mammalian expression vector [24]. A Chinese hamster ovary cell line stably expressing the calcium-dependent bioluminescent protein aequorin (CHO-K1 aeq) was grown in Dulbecco’s modified eagles medium: nutrient F12 (DMEM:F12) media containing 10% heat-inactivated fetal bovine serum (FBS; Wisent, St. Bruno, QC, Canada), 200 μg/mL geneticin, and an antimycotic-antibiotic mixture as described previously. When cells reached 80–90% confluency, they were transfected using Lipofectamine 3000 transfection reagent following manufacturer recommendations (Life Technologies, Burlington, ON, Canada) to transiently express a mammalian construct in pcDNA3.1+ containing either of the two candidate CNMa receptors or mCherry (pcDNA3.1+ mCherry was a gift from Scott Gradia, Addgene plasmid #30125), the latter of which served as a negative control for the receptor functional assay. After 48 h following transfection, CHO-K1 aeq cells were harvested by dislodging from culture flasks using Dulbecco’s PBS containing EDTA and subsequently resuspended in receptor assay media.
Other Ae. aegypti peptides used in this study included “capability” (CAPA)-1 (GPTVGLFAFPRV-NH2), CAPA-2 (pQGLVPFPRV-NH2), AedaeCAPA-pyrokinin (PK) 1 (AGNSGANSGMWFGPRL-NH2), adipokinetic/corazonin-like peptide (ACP; pQVTFSRDWNA-NH2), adipokinetic hormone (AKH) (pQLTFTPSW-NH2), and corazonin (CRZ; pQTFQYSRGWTN-NH2). Serial dilutions of the peptide stocks were prepared in bovine serum albumin (BSA) assay media (DMEM:F12 media + 0.1% BSA + 1× antibiotic-antimycotic) to test concentrations ranging from 10 pM to 50 μM. Single concentrations of the various peptides were loaded into individual wells of white 96-well luminescence plates (Greiner Bio-One, Frickenhausen, Germany) with each peptide concentration tested in quadruplicate. CHO-K1 aeq cells expressing either of the two AeCNMa receptors or mCherry were prepared for the functional assay, as described above, and injected into each well of the 96-well luminescence plates by an automated injector unit integrated with the Synergy 2 Multi-Mode Microplate Reader (BioTek, Winooski, VT, USA). The kinetic luminescent response was measured for 10 s immediately following the application of the cells into the wells containing the different peptide treatments or the negative (i.e., BSA media alone) or positive (i.e., 50 μM ATP) controls as described previously. Data was assembled in Microsoft Excel and then analyzed in GraphPad Prism 7.02 (GraphPad Software, San Diego, CA, USA) where the dose–response curves from multiple biological replicates were used to determine the half maximal effective concentrations (EC50).

Ae. aegypti females = test: Egg laying after injection into mated, blood-fed females; type: in vivo, Aedes aegypti
Procedure: (§1) Three- to five-day-old mated females were blood-fed as detailed above, and groups were injected with a range of CNMa in 0.5 μL of saline or saline alone (AS) for a control. Females were allowed to recover and then housed individually in mesh cages. At 3 d PBM, a wet paper towel was provided to the females to facilitate egg laying for up to 48 h and then the number of eggs was counted. To assess possible interactions of CNMa with OEH and ILP3, mated females were blood-fed then decapitated and injected at 1 h PBM with 150 pmol of CNMa, OEH, or ILP3, or combinations of each hormone. Ovaries were dissected at 24 h PBM and yolk deposition was measured along the anterior–posterior axis for five oocytes from each individual, using an ocular micrometer fitted to a dissecting microscope. For CNMa and JH experiments, pupae were isolated in eclosion chambers for 6 h and females were collected. Females were divided into two groups, one which was immediately injected with 150 pmol of CNMa or saline. The other half of the cohort was held for an additional 8 h then injected with the same solutions. At 3 d post-eclosion, females were blood-fed and oviposition was measured for all treatment groups.
Figure 5 AeCNMa reduces egg clutch size in mated Ae. aegypti females. […] After three days females were allowed to oviposit and eggs were counted 48 h later. […]

[1] = system: ecdysteroid-responsive gene e74; test: e74 transcript abundance (qPCR) after injection into females; type: in vivo, Aedes aegypti; conditions: CNMa or saline injected females, qPCR relative to AS-treated, MANOVA e74: F3,19 = 0.8192, p = 0.50
Procedure: (§2) Cohorts of female Ae. aegypti were sampled 8 to 10 days post-eclosion, pre-blood meal (NBF), then at 2, 4, 6, 8, 12, 24, 48, and 72 h PBM. Four or more females from each timepoint were dissected in cold, RNase-free PBS into head, midgut, ovaries, and abdominal body wall and fat body (“pelt”). Tissue samples were immediately frozen and stored at −80 °C. Tissues were thawed on ice, homogenized with a rotor type pestle, and then total RNA was extracted using the RNeasy Mini kit (Qiagen, Venlo, The Netherlands) according to the manufacturer’s instructions. RNA was treated with DNase using the Turbo DNA-free kit (Ambion, Austin, TX, USA). cDNA was synthesized from 100 ng of RNA with the iScript cDNA synthesis kit (BioRad, Hercules, CA, USA) and used as template in qPCR using the Quantifast SYBR Green PCR kit (Qiagen). The primers for each product are listed in Table S1. qPCR was performed on the Qiagen Rotorgene as described in [28]. Absolute standard curves were produced by cloning each qPCR product into the pSCA vector using the Strataclone PCR cloning kit (Agilent, Santa Clara, CA, USA) and preparing plasmid standards of a known copy number. For comparisons between mating status, the copy number of each target was normalized to the copy number of ribosomal protein S7.
(§3) For e74, expression is relative to e74 expression in AS-treated insects.

[2] = system: CHO K1 aeq mCherry-expressing cells; test: Negative control: luminescence in CHO-K1 aeq cells expressing mCherry; type: cell-based, Chinese hamster; conditions: 1 µM peptide; CHO K1 aeq cells transfected with pcDNA3.1+ mCherry
Excerpt: The CNMa peptide was synthesized and HPLC purified (>90% purity) by Royobiotechs (Shanghai, China) based on the published sequence of the AeCNMa peptide sequence. Both the amidated (YMSLCHFKLCNMa) and the non-amidated (YMSLCHFKLCNM) were produced with a disulfide bridge between cysteines 5 and 10. The complete coding sequence of the two putative Ae. aegypti CNMa receptors (VectorBase genes AAEL024199 and AAEL018316, which we henceforth refer to as AeCNMaR-1a and AeCNMaR-1b, respectively) were commercially synthesized (Integrated DNA Technologies) and subsequently subcloned into a pcDNA3.1+ mammalian expression vector [24]. […]
Other Ae. aegypti peptides used in this study included “capability” (CAPA)-1 (GPTVGLFAFPRV-NH2), CAPA-2 (pQGLVPFPRV-NH2), AedaeCAPA-pyrokinin (PK) 1 (AGNSGANSGMWFGPRL-NH2), adipokinetic/corazonin-like peptide (ACP; pQVTFSRDWNA-NH2), adipokinetic hormone (AKH) (pQLTFTPSW-NH2), and corazonin (CRZ; pQTFQYSRGWTN-NH2). […] Single concentrations of the various peptides were loaded into individual wells of white 96-well luminescence plates (Greiner Bio-One, Frickenhausen, Germany) with each peptide concentration tested in quadruplicate. […]

[3] = system: JH-responsive gene kruppel-homolog 1 (kh-1); test: kh-1 transcript abundance (qPCR) after injection into females; type: in vivo, Aedes aegypti; conditions: CNMa or saline injected females
Procedure: as §2, §3

[4] = system: Ae. aegypti females (decapitated); test: Yolk deposition in blood-fed decapitated females; type: in vivo, Aedes aegypti
Procedure: as §1
Average amount of yolk per oocyte in mated, blood fed, decapitated females injected with combinations of CNMa (150 pmol), ILP3 (20 pmol), and OEH (20 pmol), Aedes saline (AS), or not injected (intact or decapitation only) at one-hour post blood meal. Error bars show one standard error above and below the mean.

Chain of AeCNMaR-1b (AAEL018316) (A0A1S4G7J8 entry or part of it): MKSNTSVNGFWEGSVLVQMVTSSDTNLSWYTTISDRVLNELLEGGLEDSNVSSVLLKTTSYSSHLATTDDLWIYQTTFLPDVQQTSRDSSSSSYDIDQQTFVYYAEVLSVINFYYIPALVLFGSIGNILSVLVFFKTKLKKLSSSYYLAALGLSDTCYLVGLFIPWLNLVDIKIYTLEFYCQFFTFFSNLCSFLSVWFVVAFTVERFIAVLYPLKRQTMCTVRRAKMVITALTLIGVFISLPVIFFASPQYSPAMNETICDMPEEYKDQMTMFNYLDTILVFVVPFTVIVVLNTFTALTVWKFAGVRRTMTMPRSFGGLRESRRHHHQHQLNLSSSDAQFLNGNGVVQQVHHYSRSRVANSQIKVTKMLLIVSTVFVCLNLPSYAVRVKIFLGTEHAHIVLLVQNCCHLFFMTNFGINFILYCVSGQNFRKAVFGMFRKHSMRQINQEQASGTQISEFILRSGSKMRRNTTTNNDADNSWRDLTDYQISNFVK

Substance | EC50 (AeCNMaR-1b (AAEL018316); CHO-K1 aeq cells, transient AeCNMaR-1b, luminescence over 10 s, 10 pM to 50 μM, quadruplicate, normalized to 50 µM AeCNMa, BSA assay media, read-out: EC50) [nM] | EC50 (AeCNMaR-1a (AAEL024199); CHO-K1 aeq cells, transient AeCNMaR-1a, luminescence over 10 s, 10 pM to 50 μM, quadruplicate, normalized to 50 µM AeCNMa, BSA assay media, read-out: EC50) [nM] | number of eggs laid vs controls (Ae. aegypti females; 150 pmol injected immediately post blood meal, mated, eggs counted after 3 d + 48 h oviposition, control Aedes saline (AS)) | optimal dose (dose-response assay) (Ae. aegypti females; injection into mated) [pmol] | e74 expression vs saline [1] | e74 expression vs saline ([1]; listed as CNMa) | luminescence in mCherry-expressing control cells [2] | kh-1 expression vs saline ([3]; MANOVA kh-1: F1,20 = 0.5141, p = 0.68) | kh-1 expression vs saline ([3]; MANOVA kh-1: F1,20 = 0.5141, p = 0.68, listed as CNMa) | greater sensitivity for the amidated peptide (AeCNMaR-1b (AAEL018316); AeCNMaR-1b, amidated AeCNMa vs non-amidated AeCNM) [fold] | luminescent response vs BSA media background (AeCNMaR-1b (AAEL018316); AeCNMaR-1b, peptides tested at 1 µM, raw luminescence, one-way ANOVA and Dunnett's test) | lower concentration activating AeCNMaR-1a than AeCNMaR-1b (AeCNMaR-1a (AAEL024199); AeCNMaR-1a vs AeCNMaR-1b) | increase in sensitivity for the amidated peptide (AeCNMaR-1a (AAEL024199); AeCNMaR-1a, amidated AeCNMa vs non-amidated AeCNM) [fold] | luminescent response vs BSA media background (AeCNMaR-1a (AAEL024199); AeCNMaR-1a, peptides tested at 1 µM, raw luminescence, one-way ANOVA and Dunnett's test) | yolk uptake, CNMa only ([4]; CNMa 150 pmol at 1 h post blood meal, decapitated females, vs decapitated only and AS control, Tukey's HSD) | yolk uptake, CNMa and ILP3 ([4]; CNMa 150 pmol, ILP3 20 pmol at 1 h post blood meal, vs ILP3 only and ILP3 and OEH, Tukey's HSD) | yolk uptake, CNMa + OEH + ILP3 ([4]; CNMa 150 pmol, ILP3 20 pmol, OEH 20 pmol at 1 h post blood meal, vs ILP3 + OEH injected females, Tukey's HSD) | yolk uptake, OEH + CNMa ([4]; CNMa 150 pmol, OEH 20 pmol at 1 h post blood meal, vs OEH only or OEH + ILP3, Tukey's HSD) | effect on yolk deposition elicited by OEH, ILP3, or both peptides together ([4]; decapitated blood-fed females, co-injection)
YMSLCHFKLCNMa (disulfide) (YMSLCHFKLCNM-NH2; disulfide 5-10; N-terminus assumed; SMILES CSCC[C@H](NC(=O)[C@H](CC(N)=O)NC(=O)[C@@H]1CSSC[C@H](NC(=O)[C@H](CC(C)C)NC(=O)[C@H](CO)NC(=O)[C@H](CCSC)NC(=O)[C@@H](N)Cc2ccc(O)cc2)C(=O)N[C@@H](Cc2c[nH]cn2)C(=O)N[C@@H](Cc2ccccc2)C(=O)N[C@@H](CCCCN)C(=O)N[C@@H](CC(C)C)C(=O)N1)C(N)=O) [AeCNMa, Ae. aegypti CNMa peptide, amidated, HPLC purified (>90% purity)] | 51.8 | 5.17 | – | – | – | – | – | – | – | – | – | – | – | – | – | – | – | – | –
YMSLCHFKLCNMa (disulfide) [AeCNMa, Ae. aegypti CNMa peptide, amidated, HPLC purified (>90% purity)] | – | – | laid significantly fewer eggs than controls; also recorded: produced significantly fewer eggs than controls (p = 0.0087, Wilcoxon rank-sum test) | 150 | no significant difference in their expression | did not significantly impact expression | No luminescence was detected | no significant difference in their expression | did not significantly impact expression | 2.4 | significant response several orders of magnitude over the BSA media background luminescent response | ~ 10 fold | 9 | significant response several orders of magnitude over the BSA media background luminescent response | not significantly different from decapitated only and AS control treatments | no significant difference in yolk uptake | no significant difference in yolk uptake | no significant difference in yolk uptake relative to OEH only or OEH + ILP3 treatments | did not affect yolk deposition elicited by OEH, ILP3, or both peptides together

Reference: article PMC8955854, “The Peptide Hormone CNMa Influences Egg Production in the Mosquito Aedes aegypti” (Insects, 2022)
